In patent US10450317B2, “Notch pathway signaling inhibitor compounds” (Eli Lilly and Company, priority 2015, dated 2019):

How the values were obtained:
Atoh1 = test: Hair cell marker induction in whole otic capsule culture (RT-PCR); assay type: cell-based, mice; details: otic capsule explants, 48 hours in culture, vs vehicle-only control, n of 12-17
Source text: The otic capsule (otic capsule explant), comprised of the cochlear bony labrinth and vestibular systems, is dissected from 1 to 4 day-old postnatal mice (transgenic strain: Atoh 1-driven nGFP; Lumpkin E A, et al., Gene Expr. Patterns, 2003, 3(4): 389-95) of both sexes generally according to the method described in Parker et al., Journal of Visualized Experiments, 2010, (36), e1685. The entire otic capsule is isolated from the parietal bone and maintained ex-vivo in a roller tube culture system for up to 3 days in medium containing DMEM, high glucose, 5% FBS, 5% horse serum, 1 μg/ml ampicillin.
The otic capsule explant is used to evaluate test compound, in various delivery vehicles, penetrance into the inner ear. Tests are carried out with compositions of Compound 1, Isomer 2, (7.2 mM) in various delivery vehicles. […]
The composition is allowed to remain for 1-2 hours then washed away with culture medium. […] The cochlea is broken open and the entire organ of Corti is then dissected out and prepared for quantitative RT-PCR to measure Atoh1 hair cell marker expression levels (as described in organ of Corti explant assay, above). […] Up-regulation of Atoh1 by Compound 1, Isomer 2, in all tested compositions (2-3 fold, n of 12-17) is measured in comparison to vehicle-only control-treated otic capsule explants after 48 hours in culture.

[1] = system: outer hair cells in organ of Corti explants; test: Organ of Corti explant assay, immuno-staining and count of outer hair cells; assay type: cell-based, mice; details: explants cultured four days at 1 μM; relative to negative control-treated samples
Protocol: The bulla and surrounding tissue from the petrous portion of the temporal bone are removed from 1 to 4 day-old postnatal mice (transgenic strain: Atoh1-driven nGFP; Lumpkin E A, et al., Gene Expr Patterns, 2003, (36):389-95) of both sexes. Organs of Corti are dissected in Hanks solution, the spiral ligament is removed and the explants are placed on cover slips coated with poly-L-ornithine (0.01%, Sigma) and laminin ([…], Becton Dickinson) to obtain a preparation with a flat cochlear surface. Each cochlear explant is then placed in a single well of a 24 well plate (Falcon) and cultured in DMEM (Invitrogen) with 5% fetal bovine serum, 5% horse serum, and penicillin-streptomycin (LifeTechnologies). Experimental compounds are added with medium on Day 0 and replaced every 2-3 days. All cultures are maintained in a 5% CO2 humidified incubator at 37° C.
Following the explant culture, tissues are fixed in the 24 well plate with 200 μl Cytofix/Cytoperm (BD) for 30 min, rinsed with PBS containing TritonX100 (PBST), and stained with 200 μl of primary antibody solution, consisting of 4% normal donkey serum in PBST with goat anti-GFP (1:2500; AbCAM, ab5450) and rabbit anti-myosinVIIa (1:1000; Proteus Bioscience #25-6790) for 1 hour. […] Blinded cell counts are measured in five separate experiments. […]

## COc1ccc2c(c1)N1CCC(C)(C)C1=CC(=O)C2NC(=O)[C@H](C)NC(=O)CCC(F)(F)F (single isomer, unassigned) [Compound 1, Isomer 2]
Atoh1
  Up-regulation of Atoh1 in all tested compositions: 2-3 fold
[1]
  Percent Increase in hair cells: 14.15 ± 1.9%

## C[C@H](NC(=O)CCC(F)(F)F)C(=O)NC1C(=O)C=C2N(CCC2(C)C)c2ncccc21 (single isomer, unassigned) [Compound 2, Isomer 2]
[1]
  Percent Increase in hair cells: 17.26 ± 1.2%
